{
  "source": "patent US20170240592A1",
  "about": "“GADD45BETA/MKK7 INHIBITOR FOR THE TREATMENT OF A RESISTANT HAEMATOLOGICAL MALIGNANCY” (IMPERIAL INNOVATIONS LIMITED, priority 2014, published 2017)",
  "molecular_target": "T1, Gadd45β binding to MKK7 (Homo sapiens, UniProt O14733)",
  "T1 construct": "Full-length human (h)MKK7 was expressed as a protein fused to an N-terminal GST tag (GST-MKK7); made in house",
  "T1 sequence (O14733 1-419)": "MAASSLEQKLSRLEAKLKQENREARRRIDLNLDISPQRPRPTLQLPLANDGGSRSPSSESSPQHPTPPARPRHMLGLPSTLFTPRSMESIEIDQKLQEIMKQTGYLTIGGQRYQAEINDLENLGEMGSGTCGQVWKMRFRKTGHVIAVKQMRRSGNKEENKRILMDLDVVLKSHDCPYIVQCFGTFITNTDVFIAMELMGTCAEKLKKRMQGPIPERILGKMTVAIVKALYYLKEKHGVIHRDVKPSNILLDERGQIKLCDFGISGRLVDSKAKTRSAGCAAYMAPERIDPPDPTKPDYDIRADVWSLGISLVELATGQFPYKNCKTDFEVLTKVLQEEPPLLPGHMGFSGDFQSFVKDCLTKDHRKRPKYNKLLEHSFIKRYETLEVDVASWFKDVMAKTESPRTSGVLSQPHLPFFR",
  "test": "ELISA Gadd45β/MKK7 competition assay",
  "description": "Values express the percentage of live cells present in the treated cultures relative to the live cells present in the respective untreated cultures and denote means±SD ([WM]; n=3). UT, untreated. […] Values express the percentage of inhibition of Gadd45β binding to MKK7 relative to the binding measured in the absence of peptide. […] Co-immunoprecipitations (IP) were performed using an anti-FLAG antibody (a-FLAG); western blots (WB) were developed using an anti-HA or an anti-MKK7 antibody, as shown.\nProteins were purified as described in Tornatore et al., 2008. Individual peptides were synthesised as reported in Sandomenico et al., 2012. […] Peptide identity and purity were determined using liquid chromatography-mass spectrometry (LC-MS). […]\nRecombinant proteins were purified as described previously (Tornatore et al., 2008). Briefly, full-length human (h)GADD45β was expressed as a protein fused to a poly-histidine (His6) tag and purified by affinity chromatography using His-Trap columns (GE Healthcare). […] Full-length human (h)MKK7 was expressed as a protein fused to an N-terminal GST tag (GST-MKK7), purified using GST-Trap as above, and then used for ELISA analyses. […] The kinase domain (KD) of hMKK7 (amino acids 101-405) was expressed as a protein fused to an N-terminal His6 tag in E. coli (BL21[DE3] strain) using the pETDuet-1 vector (Novagen). […]",
  "data": [
    {"smiles": "CC(=O)N[C@H](Cc1ccc(O)cc1)C(=O)N[C@H](CCCNC(=N)N)C(=O)N[C@H](Cc1ccccc1)C(N)=O", "note": "[DTP3, Acetyl-Tyr-Arg-Phe-NH2]", "values": [
      {"measurement": "Gadd45β/MKK7 inhibitor activity", "value": "sub-nM"},
      {"measurement": "stability in vitro", "setting": "before and after 48-hr pre-incubation with human serum at 37° C.", "value": "high stability in vitro"}
    ]}
  ]
}
